Experiments:
[1] = system: cord blood-derived NK cells; assay: Expression of constitutive and regulated mbIL15 in cord blood NK cells in response to ACZ (FACS); type: cell-based, human; conditions: NK cells transduced with IL15-293
Method: Cryopreserved mononuclear cell-fractionated cord blood units were obtained from BioBridge Global. Cord blood was diluted 1:1 with phosphate-buffered saline (PBS) and centrifuged over a cushion of Ficoll-Paque+(Sigma Cat. No. GE17-1440-02). The buffy coat comprising mononuclear cells (MNC) was collected, and the MNC were washed and counted. NK cells were isolated from MNC using EasySep Human NK Cell Isolation Kit (Stemcell Technologies Cat. No. 17955). NK cells were counted and checked for purity by FACS using CD56, CD16, CD3 and viability stain.
One day prior to NK cell isolation as described in Example 8, feeder cells (K562 cells expressing 4-1BBL and mbIL-21) were thawed in complete NK cell media (RPMI with Glutamax (ThermoFisher), 10% heat-inactivated fetal bovine serum (Gibco), 1× Penicillin/Streptomycin, 1 mM Sodium Pyruvate, 1×HEPES, 50 μM 2-Mercaptoethanol). On the day of NK cell isolation, 10×10^6 feeder cells were treated with mitomycin C to inhibit their proliferation and washed to remove excess drug. […] NK cell cultures were expanded by replenishing cell cultures with NK cell media and rhIL2 every two days, and analyzed by FACS for NK cell expansion. […]
mbIL15 expression was determined by flow cytometry using two staining reagents: IL15Ra-Fc and an anti-CD56 antibody. mbIL15+ cell frequency was determined relative to the number of NK cells as determined by the anti-CD56 antibody. […]

TIL = assay: Expression of constitutive and regulated mbIL15 in TIL in response to ACZ (flow cytometry); type: cell-based, human; conditions: TIL transduced with IL15-293
Method: HEK293T cells were seeded on collagen coated tissue culture plates until 70% confluent. Cells were transfected with pELNS transfer vector carrying constitutive (IL15-292) or regulated (IL15-293) IL15 constructs, as well as packaging plasmids (pRSV.REV, pMDLg/pRRE and OT-BaEVg-002 (SEQ ID NO: 51)) using Lipofectamine 3000 transfection reagent in Opti-MEM media. Media was replaced 6-8 hrs post-transfection with serum-free media. Supernatants containing virus were harvested 24 hr post-transfection, fresh media was added, and supernatants were harvested again at 48 hr post-transfection. Viral supernatants were filtered to remove debris and concentrated by low speed ultracentrifugation. Virus were resuspended, aliquoted and stored at −80 C freezer.
96-well non-coated tissue culture plates were incubated with 35 μg per mL RetroNectin (Takara Bio) in PBS for 2 h at 37° C. or overnight at 4° C. RetroNectin was removed and the plates washed with PBS. […]
mbIL15 expression was determined by flow cytometry using two staining reagents: fluorochrome-conjugated anti-IL15 antibody as well as a recombinant protein comprised of extracellular domain of IL15Ra fused to human IgG1 Fc domain (IL15Ra-Fc). mbIL15+ cell frequency was determined based on co-staining with anti-IL15 and IL15Ra-Fc (identified as the IL15+IL15Ra-Fc+ double positive population).

Human primary T cells = assay: In vitro antigen-independent expansion of T cells expressing constitutive or ACZ-regulated mbIL15 (cell numbers by flow cytometry); type: cell-based; conditions: 2 ng/mL exogenous IL15
Method: Human primary T cells capable of expressing constitutive mbIL15 or ACZ-regulated mbIL15 were prepared in accordance with methods described in Example 1 above.
After T cell transduction and expansion, CD3/CD28 beads were removed using magnets, cells were washed twice, resuspended in fresh media and counted. Cells were plated in 12-well plates at 1×10^6 in 2 mL. One well of untransduced cells was cultured in the presence of 2 ng/mL IL15 as a control. T cells expressing regulated constructs were cultured in the absence or presence of acetazolamide (ACZ, 30, 10, 3, 1, 0.3 μM). Cell numbers were monitored by flow cytometry every 3-4 days and cells were cultured for 10-12 days. At each time point 100 μL of cells were collected from wells and analyzed by flow cytometry. Cells were split as needed. Cell cultures were maintained in 12-well plates by taking a portion and adding media in a new plate. Volumes for each well were recorded before and after split to calculate final volume in cell number assessment. IL15 or ACZ were replenished at final concentration of the fresh media added during each split.
T cell numbers were determined by flow cytometry. Empty vector (EV) transduced cell numbers decreased to background levels between 3-5 days in the absence of IL15, and cells expanded 11-fold in the presence of 2 ng/mL exogenous IL15 (FIG. 3A). […]

Compound	Effect of ACZ on mbIL15 in transduced NK [1]	Effect of ACZ on mbIL15 in transduced TIL (TIL)	Expansion of empty vector (EV) transduced T cells in the presence of exogenous IL15 (Human primary T cells)
CC(=O)Nc1nnc(S(N)(=O)=O)s1 [ACZ, acetazolamide, reference compound]	induces CA2 DRD-regulated mbIL15 in transduced NK	induces CA2 DRD-regulated mbIL15 in transduced TIL	–
exogenous IL15: exogenous IL15 (2 ng/mL) added to empty vector transduced T cells as control [reference compound]	–	–	11 -fold
